Measured values from patent US12226484B2, “Compositions having improved bioavailability of therapeutics” (TRx Biosciences Limited, priority 2021, dated 2025).

Columns and labels:
[1] = Formulating procedure: dissolution and stable incorporation in glycerolipid admixture/matrix; assay type: physicochemical; settings: as shown in Example 3
Method: As a first step, it is first determined whether a selected therapeutic compound can be formulated using 1) glycerolipids including at least one liquid fat (glycerolipid that is liquid at 18° C.) and at least one hard fat (glycerolipid that is solid at 18° C.) and 2) one or more digestion enhancers. In some embodiments, the one or more liquid and hard fats are first heated and the one or more digestion enhancers are solubilized in the glycerolipid admixture. Upon completion of solubility of the digestion enhancers, and if appropriate, the temperature of the admixture can be adjusted and a selected therapeutic compound is then dissolved in this heated admixture to incorporate the compound. […] In some embodiments, the one or more liquid fats are first heated and the one or more digestion enhancers are solubilized in the liquid fats. […] The initial heating step in all procedures is performed at a temperature sufficient to dissolve the one or more digestion enhancers and selected therapeutic compound and can be empirically determined based on the melting point of the selected components. […] Any subsequent adjustment to the heat when one or more liquid fats and/or one or more hart fats are being added to the admixture is performed at a temperature sufficient to melt the hard fats and can be empirically determined based on the melting point of the hard fat used in the formulation. […]

[2] = cited from earlier work
[3] = Biopharmaceutics Classification System class; cited from earlier work
[4] = reported value; cited from earlier work
[5] = Oleic acid miscibility / self-emulsification in dissolution media modelling ICH dissolution testing; assay type: physicochemical; settings: 1 g (100% or 75%) in one liter PBS with […] curcumin, 37° C., 300 rpm 10 minutes, then 10 minutes without stirring
Method: To assess whether oleic acid could self-emulsify at the concentrations used in the disclosed pharmaceutical compositions, experiments was performed that were designed to model dissolution testing according to International Council for Harmonisation (ICH) guidelines. […] Miscibility experiments were performed using two concentrations of oleic acid nominally above the CMC concentration for this fatty acid. In one series of experiments, 1 g of 100% oleic acid was added to the dissolution media. The control compound was 1 g of 100% MAISINE™ CC. In a second series of experiments 1 g of 75% oleic acid (diluted with 250 mg of MAISINE™ CC) was added to the dissolution media. The control compound was 1 g of 75% MAISINE™ CC. The miscibility of oleic acid and MAISINE™ CC was assessed by observing the dissolution media for 10 minutes with constant stirring and then 10 minutes without stirring. Photographs were taken at time 0, 1, 2, 3, 4, 5 and 10 minutes during the stirring phase and 2, 4 and 10 minutes after stirring ceased.
Both oleic acid preparations quickly distributed throughout the PBS in small but clearly defined lipid droplets which were still observable after 10 minutes of stirring. On cessation of stirring, the lipid droplets either adhered to the stirrer or floated to the top of the PBS, with the bulk of the PBS clearing. […]

[6] = Incorporation of therapeutic compound into glycerolipid formulations with digestion enhancers (visual; cooling and remelting); settings: for behaviour on stepwise hard fat addition (visual): then GELUCIRE 43/01 up to 1,000 mg
[7] = previous studies; cited from earlier work
[8] = Solubility of therapeutic compound in heated lipids in the absence of cholic acid (visual); settings: 60° C., stirred at least 60 minutes; only MAISINE CC and MAISINE CC/GELUCIRE 43/01 in ratios of 2:1 to 1:2
Method: ® 43/01, was then added in a stepwise fashion of 6 g to this lipid mixture until the total amount reached 24 g. […]

| Compound | Log P [2] | other results |
| --- | --- | --- |
| COc1cc(/C=C/C(=O)CC(=O)/C=C/c2ccc(O)c(OC)c2)ccc1O [Curcumin] | >1 | solubility using a formulation disclosed herein [1]: soluble |
| C[C@H](O)[C@H](O)[C@H]1CNc2nc(N)[nH]c(=O)c2N1 [Sapropterin] | <1 | BCS [3]: I |
| C[C@]12CC[C@H](O)CC1=CC[C@@H]1[C@@H]2CC[C@]2(C)C(c3cccnc3)=CC[C@@H]12 [Abiraterone] | >1 |  |
| CCCCCCCCCCCCCCCCCC(=O)[O-].[Na+] [sodium stearate] |  | critical micellar concentration (CMC) [4]: 71 µM |
| CCCCCCCC/C=C\CCCCCCCC(=O)O [oleic acid] |  | miscibility in the dissolution media [5]: not miscible; critical micellar concentration (CMC) [4]: 2300 µM |
| COC(=O)c1ccc2c(c1)NC(=O)/C2=C(\Nc1ccc(N(C)C(=O)CN2CCN(C)CC2)cc1)c1ccccc1 [nintedanib esylate] |  | incorporation into heated glycerolipid mixture (visual) ([6]; 40 mg in 1.0 g MAISINE CC with 1.5 g oleic acid and 100 or 150 mg sodium oleate or sodium stearate, about 130° C., no cholic acid or lecithin): failed to incorporate; incorporation into heated glycerolipid mixture (visual) ([6]; 40 mg in 1.0 g MAISINE CC with 1.5 g oleic acid, sodium oleate or sodium stearate, and 30 mg of cholic acid or 30 mg lecithin, about 130° C.): became soluble |
| Clc1ccc(CCCOCCCN2CCCCC2)cc1 [Pitolisant] | >1 | BCS [3]: I |
| CN(C)C(=N)N=C(N)N [Metformin] |  | BCS [3]: I |
| CC(C)c1ccc2oc3nc(N)c(C(=O)O)cc3c(=O)c2c1 [Amlexanox] | >1 |  |
| COc1ccc2[nH]c([S+]([O-])Cc3ncc(C)c(OC)c3C)nc2c1 (centres unmarked) [Omeprazole] | >1 |  |
| O=C(c1cc(Cc2n[nH]c(=O)c3ccccc23)ccc1F)N1CCN(C(=O)C2CC2)CC1 [Olaparib] | >1 | appearance on remelting of the solid composition (visual) ([6]; MAISINE CC, fatty acid component, cholic acid and GELUCIRE 43/01, 130° C., cooled, remelted at 50° C.): no precipitate formation; behaviour on cooling and solidification (visual) ([6]; MAISINE CC, oleic acid and GELUCIRE 43/01 without cholic acid, 130° C., cooled to room temperature): precipitated out of solution |
| O=C(O)c1cccnc1 [Niacin] | <1 | BCS [3]: I |
| O=C(C1CCCCC1)N1CC(=O)N2CCc3ccccc3C2C1 (centres unmarked) [Praziquantel] | >1 |  |
| Cc1ccc(=O)n(-c2ccccc2)c1 [Pirfenidone] | >1 | BCS [3]: I |
| CC(C)NCC(O)COc1cccc2ccccc12 (centres unmarked) [Propranolol] |  | BCS [3]: I |
| CCCCCCCC(=O)N[C@H](CN1CCCC1)[C@H](O)c1ccc2c(c1)OCCO2 [Eliglustat] | >1 | BCS [3]: I or III |
| Cc1ccc(C)c(OCCCC(C)(C)C(=O)O)c1 [Gemfibrozil] | >1 |  |
| CO[C@@H]1[C@H](N(C)C(=O)c2ccccc2)C[C@H]2O[C@]1(C)n1c3ccccc3c3c4c(c5c6ccccc6n2c5c31)C(=O)NC4 [Midostaurin] | >1 |  |

| Compound | Log P [2] | other results |
| --- | --- | --- |
| NCCc1c[nH]c2ccc(O)cc12 [Serotonin] | <1 |  |
| O=C(NC(Cc1cc(=O)[nH]c2ccccc12)C(=O)O)c1ccc(Cl)cc1 (centres unmarked) [Rebamipide] | >1 |  |
| COC(=O)c1ccc2c(c1)NC(=O)/C2=C(\Nc1ccc(N(C)C(=O)CN2CCN(C)CC2)cc1)c1ccccc1 [Nintedanib] | >1 | BCS [3]: II or IV |
| C[C@@H](O[C@H]1OCCN(Cc2n[nH]c(=O)[nH]2)[C@H]1c1ccc(F)cc1)c1cc(C(F)(F)F)cc(C(F)(F)F)c1 [Aprepitant] | >1 | incorporation into heated glycerolipid mixture (visual) ([6]; 50 mg with 40 mg cholic acid added to 500 mg MAISINE CC and 1,000 mg GELUCIRE 43/01 together, about 120° C. to about 160° C.): failed to incorporate; behaviour on stepwise hard fat addition (visual) ([6]; 50 mg with 40 mg cholic acid in 500 mg MAISINE CC, about 120° C. to about 160-170° C.): remained in solution; behaviour on stepwise hard fat addition (visual) ([6]; 60 mg dissolved in 500 mg MAISINE CC without cholic acid, about 120° C. to about 160° C.): precipitate |
| CO[C@@H]1[C@@H](OC(N)=O)[C@@H](O)[C@H](Oc2ccc3c(O)c(NC(=O)c4ccc(O)c(CC=C(C)C)c4)c(=O)oc3c2C)OC1(C)C [Novobiocin] | >1 |  |
| N[C@@H](Cc1c[nH]c2ccccc12)C(=O)O [Tryptophan] | <1 |  |
| O=C(c1ccc(OCCN2CCCCC2)cc1)c1c(-c2ccc(O)cc2)sc2cc(O)ccc12 [Raloxifene] | >1 |  |
| C=C(C)[C@@H]1CCC(C)=C[C@H]1c1c(O)cc(CCCCC)cc1O [cannabidiol] |  | solubility in a glycerolipid admixture of MAISINE CC and GELUCIRE 43/01 [7]: soluble |
| CC(C)OC(=O)C(C)(C)Oc1ccc(C(=O)c2ccc(Cl)cc2)cc1 [Fenofibrate] | >1 |  |
| CC1=C(/C=C/C(C)=C/C=C/C(C)=C/C(=O)O)C(C)(C)CCC1 [Retinoic acid] | >1 |  |
| COc1ccc2cc([C@H](C)C(=O)O)ccc2c1 [naproxen sodium] |  | incorporation into heated glycerolipid mixture (visual) ([6]; 393 mg alone added to 500 mg MAISINE CC and 1,000 mg GELUCIRE 43/01, about 130° C.): failed to incorporate |
| CC(=O)OC[C@H]1O[C@@H]([S-])[C@H](OC(C)=O)[C@@H](OC(C)=O)[C@@H]1OC(C)=O.CCP(CC)CC.[Au+] [Auranofin] |  | solubility in heated lipid in the absence of cholic acid (visual) [8]: remained insoluble |
| COC(=O)Nc1nc2ccc(C(=O)c3ccccc3)cc2[nH]1 [Mebendazole] | >1 |  |
| CC(C)(C)c1cc(NC(=O)Nc2ccc(Oc3ccnc4[nH]c(=O)cnc34)cc2F)n(-c2cccc(F)c2)n1 [CCT3833] | >1 |  |
| CC(=O)[C@H]1CC[C@H]2[C@@H]3CCC4=CC(=O)CC[C@]4(C)[C@H]3CC[C@]12C [Progesterone] | >1 |  |
| Clc1ccc(CCCOCCCN2CCCCC2)cc1 [pitolosant] |  | solubility in heated lipid in the absence of cholic acid (visual) [8]: remained insoluble |
| CN(C)CCC=C1c2ccccc2CCc2ccccc21 [Amitriptyline] | >1 | BCS [3]: I |
